According to US9688691B2, “Macrocyclic quinazole derivatives and their use as MTKI” (Janssen Pharmaceutica NV, priority 2004, dated 2017):

Key:
Format in all cases: biochemical
cSRC (h) = cSRC (h) (Homo sapiens, UniProt P12931); test: Kinase profiling, glass-fiber filter technology: cSRC; settings: test concentration of 10^−6 M; read-out: cSRC inhibition score
Protocol: (§1) The in vitro inhibition of a panel of kinases was assessed using the glass-fiber filter technology as described by Davies, S. P. et al., Biochem J. (2000), 351; p. 95-105.
(§2) In the glass-fiber filter technology the activity of the kinase of interest is measured using an appropriate substrate that is incubated with the aforementioned kinase protein in the presence of (^33P) radiolabeled ATP. (^33P) Phosporylation of the substrate is subsequently measured as radioactivity bound on a glassfiber-filter.
(§3) All kinases are pre-diluted to a 10× working concentration prior to addition into the assay. The composition of the dilution buffer for each kinase is detailed below.
(§4) All substrates are dissolved and diluted to working stocks in de-ionised water.
(§5) In a final reaction volume of 25 μl, cSRC (h) (5-10 mU) is incubated with 8 mM MOPS pH 7.0, 0.2 mM EDTA, 250 μM KVEKIGEGTYGVVYK (Cdc2 peptide), 10 mM MgAcetate and [γ-^33P-ATP] (specific activity approx. 500 cpm/pmol, concentration as required). The reaction is initiated by the addition of the MgATP mix. After incubation for 40 minutes at room temperature, the reaction is stopped by the addition of 5 μl of a 3% phosphoric acid solution.
(§6) 10 μl of the reaction is then spotted onto a P30 filtermat and washed three times for 5 minutes in 75 mM phosphoric acid and once in methanol prior to drying and scintillation counting.

EGFR (h) = EGFR (h) (Homo sapiens, UniProt P00533); test: Kinase profiling, glass-fiber filter technology: EGFR; settings: test concentration of 10^−6 M; read-out: EGFR inhibition score
EGFR (h), sequence (P00533 25-1210): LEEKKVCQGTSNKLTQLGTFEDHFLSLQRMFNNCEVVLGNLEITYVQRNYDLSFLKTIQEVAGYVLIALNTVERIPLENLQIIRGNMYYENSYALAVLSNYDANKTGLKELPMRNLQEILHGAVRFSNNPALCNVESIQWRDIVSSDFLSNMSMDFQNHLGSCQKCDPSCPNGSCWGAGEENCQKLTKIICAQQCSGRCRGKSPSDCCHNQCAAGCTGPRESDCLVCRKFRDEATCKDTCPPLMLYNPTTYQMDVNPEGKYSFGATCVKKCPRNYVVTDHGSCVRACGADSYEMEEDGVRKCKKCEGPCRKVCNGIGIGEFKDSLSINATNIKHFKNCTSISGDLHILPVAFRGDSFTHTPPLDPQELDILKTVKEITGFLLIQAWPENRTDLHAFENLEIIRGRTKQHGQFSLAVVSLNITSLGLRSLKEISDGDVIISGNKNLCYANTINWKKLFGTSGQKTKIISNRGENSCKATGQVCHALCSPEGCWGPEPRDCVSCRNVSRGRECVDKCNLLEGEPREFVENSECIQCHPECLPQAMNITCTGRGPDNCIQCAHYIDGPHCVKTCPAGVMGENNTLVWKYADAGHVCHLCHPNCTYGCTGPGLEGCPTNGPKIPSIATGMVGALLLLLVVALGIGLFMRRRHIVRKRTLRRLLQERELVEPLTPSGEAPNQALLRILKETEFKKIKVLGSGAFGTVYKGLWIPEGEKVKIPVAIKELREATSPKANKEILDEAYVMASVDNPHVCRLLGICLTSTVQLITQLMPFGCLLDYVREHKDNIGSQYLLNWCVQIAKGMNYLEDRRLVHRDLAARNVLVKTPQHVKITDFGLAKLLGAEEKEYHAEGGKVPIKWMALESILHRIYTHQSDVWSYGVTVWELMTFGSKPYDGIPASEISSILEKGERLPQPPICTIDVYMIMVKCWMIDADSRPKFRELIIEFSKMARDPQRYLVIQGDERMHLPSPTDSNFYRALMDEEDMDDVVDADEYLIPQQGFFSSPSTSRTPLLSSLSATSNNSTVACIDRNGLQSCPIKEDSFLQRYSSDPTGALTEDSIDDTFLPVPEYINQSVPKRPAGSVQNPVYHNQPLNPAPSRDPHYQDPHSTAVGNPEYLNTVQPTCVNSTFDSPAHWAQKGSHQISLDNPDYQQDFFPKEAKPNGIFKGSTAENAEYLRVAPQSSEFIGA
Protocol: as §1, §2, §3, §4
as §5, with “EGFR” for “cSRC”, “10 mM MnCl2, 0.1 mg/ml poly(Glu, Tyr) 4:1,” for “250 μM KVEKIGEGTYGVVYK (Cdc2 peptide),”, “solution. 10 μl of the reaction is then spotted onto a Filtermat A and washed three times for 5 minutes in 75 mM phosphoric acid and once in methanol prior to drying and scintillation counting.” for “solution.”

Lck (h) = Lck (h) (Homo sapiens, UniProt P06239); test: Kinase profiling, glass-fiber filter technology: Lck; settings: test concentration of 10^−6 M; read-out: Lck inhibition score
Lck (h), sequence (P06239 whole entry): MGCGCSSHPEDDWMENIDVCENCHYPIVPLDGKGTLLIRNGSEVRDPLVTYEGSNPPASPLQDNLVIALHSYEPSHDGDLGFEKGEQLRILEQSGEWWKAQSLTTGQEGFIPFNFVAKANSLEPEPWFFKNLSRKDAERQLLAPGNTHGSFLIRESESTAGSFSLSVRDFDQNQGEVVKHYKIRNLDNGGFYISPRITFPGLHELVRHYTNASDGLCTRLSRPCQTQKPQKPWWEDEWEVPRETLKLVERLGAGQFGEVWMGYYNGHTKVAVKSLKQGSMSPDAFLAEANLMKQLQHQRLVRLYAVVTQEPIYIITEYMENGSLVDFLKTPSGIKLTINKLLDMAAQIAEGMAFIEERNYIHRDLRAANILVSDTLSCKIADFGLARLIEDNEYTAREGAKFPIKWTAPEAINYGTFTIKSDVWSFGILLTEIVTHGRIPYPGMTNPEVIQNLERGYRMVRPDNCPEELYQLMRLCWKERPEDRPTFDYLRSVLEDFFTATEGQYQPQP
Protocol: as §1, §2, §3, §4
as §5, with “Lck” for “cSRC”, “50” for “8”, “Tris” for “MOPS”, “7.5, 0.1” for “7.0, 0.2”, “EGTA, 0.1 mM Na3VO4,” for “EDTA,”
as §6

Lyn (h) = Lyn (h) (Homo sapiens, UniProt P07948); test: Kinase profiling, glass-fiber filter technology: Lyn; settings: test concentration of 10^−6 M; read-out: Lyn inhibition score
Lyn (h), sequence (P07948 whole entry): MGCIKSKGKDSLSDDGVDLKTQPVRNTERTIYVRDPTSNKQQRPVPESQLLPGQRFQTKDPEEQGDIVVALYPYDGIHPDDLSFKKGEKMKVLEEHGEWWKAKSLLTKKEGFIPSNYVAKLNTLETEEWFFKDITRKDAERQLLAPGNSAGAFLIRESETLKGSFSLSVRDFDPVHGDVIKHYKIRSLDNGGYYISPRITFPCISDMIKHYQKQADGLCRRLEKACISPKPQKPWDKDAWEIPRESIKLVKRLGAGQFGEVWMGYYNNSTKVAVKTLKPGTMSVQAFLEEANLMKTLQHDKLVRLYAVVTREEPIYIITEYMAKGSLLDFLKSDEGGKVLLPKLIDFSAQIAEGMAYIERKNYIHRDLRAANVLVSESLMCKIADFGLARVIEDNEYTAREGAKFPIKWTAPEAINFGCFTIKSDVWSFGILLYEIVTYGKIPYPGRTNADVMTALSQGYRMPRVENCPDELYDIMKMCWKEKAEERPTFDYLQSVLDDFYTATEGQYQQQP
Protocol: as §1, §2, §3, §4
(§7) In a final reaction volume of 25 μl, Lyn (h) (5-10 mU) is incubated with 50 mM Tris pH 7.5, 0.1 mM EGTA, 0.1 mM Na3VO4, 0.1% β-mercaptoethanol, 0.1 mg/ml poly(Glu, Tyr) 4:1, 10 mM MgAcetate and [γ-^33P-ATP] (specific activity approx. 500 cpm/pmol, concentration as required). The reaction is initiated by the addition of the MgATP mix. After incubation for 40 minutes at room temperature, the reaction is stopped by the addition of 5 μl of a 3% phosphoric acid solution. 10 μl of the reaction is then spotted onto a Filtermat A and washed three times for 5 minutes in 75 mM phosphoric acid and once in methanol prior to drying and scintillation counting.

Yes (h) = Yes (h) (Homo sapiens, UniProt P07947); test: Kinase profiling, glass-fiber filter technology: Yes; settings: test concentration of 10^−6 M; read-out: Yes inhibition score
Yes (h), sequence (P07947 whole entry): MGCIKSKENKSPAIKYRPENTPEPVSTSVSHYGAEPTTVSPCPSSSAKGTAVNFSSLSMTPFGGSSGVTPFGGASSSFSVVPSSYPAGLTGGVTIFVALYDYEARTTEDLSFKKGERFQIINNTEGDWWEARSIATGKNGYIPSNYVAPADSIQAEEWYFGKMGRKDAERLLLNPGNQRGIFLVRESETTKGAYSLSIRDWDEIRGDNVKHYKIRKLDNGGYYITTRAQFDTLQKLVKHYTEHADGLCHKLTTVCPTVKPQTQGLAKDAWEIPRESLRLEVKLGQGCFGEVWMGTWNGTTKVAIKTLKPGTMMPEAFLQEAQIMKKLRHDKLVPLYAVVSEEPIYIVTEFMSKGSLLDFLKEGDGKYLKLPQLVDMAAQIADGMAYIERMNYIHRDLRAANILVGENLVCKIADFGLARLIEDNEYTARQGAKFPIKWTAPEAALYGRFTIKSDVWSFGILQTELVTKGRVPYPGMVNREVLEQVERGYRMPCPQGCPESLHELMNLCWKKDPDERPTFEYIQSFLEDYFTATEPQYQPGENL
Protocol: as §1, §2, §3, §4
as §7, with “μl, Yes” for “μl, Lyn”, “with 8” for “with 50”, “mM MOPS” for “mM Tris”, “pH 7.0, 0.2” for “pH 7.5, 0.1”, “mM EDTA,” for “mM EGTA, 0.1 mM Na3VO4, 0.1% β-mercaptoethanol,”

Blk (m) = Blk (m) (Mus musculus, UniProt P16277); test: Kinase profiling, glass-fiber filter technology: Blk; settings: test concentration of 10^−6 M; read-out: Blkl inhibition score
Protocol: as §1, §2, §3, §4
as §7, with “Blk (m)” for “Lyn (h)”, “[γ-33P-ATP]” for “[γ-^33P-ATP]”

Abl (h) = Abl (h) (Homo sapiens, UniProt P00519); test: Kinase profiling, glass-fiber filter technology: Abl; settings: test concentration of 10^−6 M; read-out: Abl inhibition score
Protocol: as §1, §2, §3, §4
as §7, with “Abl” for “Lyn”, “with 8 mM MOPS pH 7.0, 0.2 mM EDTA,” for “with”, “μM EAIYAAPFAKKK,” for “mM Tris pH 7.5, 0.1 mM EGTA, 0.1 mM Na3VO4, 0.1% β-mercaptoethanol, 0.1 mg/ml poly(Glu, Tyr) 4:1,”, “P30 filtermat” for “Filtermat A”

Fyn human = Fyn human (Homo sapiens, UniProt P06241); test: Kinase profiling, glass-fiber filter technology: Fyn; settings: test concentration of 10^−6 M; read-out: Fyn inhibition score
Fyn human, sequence (P06241 whole entry): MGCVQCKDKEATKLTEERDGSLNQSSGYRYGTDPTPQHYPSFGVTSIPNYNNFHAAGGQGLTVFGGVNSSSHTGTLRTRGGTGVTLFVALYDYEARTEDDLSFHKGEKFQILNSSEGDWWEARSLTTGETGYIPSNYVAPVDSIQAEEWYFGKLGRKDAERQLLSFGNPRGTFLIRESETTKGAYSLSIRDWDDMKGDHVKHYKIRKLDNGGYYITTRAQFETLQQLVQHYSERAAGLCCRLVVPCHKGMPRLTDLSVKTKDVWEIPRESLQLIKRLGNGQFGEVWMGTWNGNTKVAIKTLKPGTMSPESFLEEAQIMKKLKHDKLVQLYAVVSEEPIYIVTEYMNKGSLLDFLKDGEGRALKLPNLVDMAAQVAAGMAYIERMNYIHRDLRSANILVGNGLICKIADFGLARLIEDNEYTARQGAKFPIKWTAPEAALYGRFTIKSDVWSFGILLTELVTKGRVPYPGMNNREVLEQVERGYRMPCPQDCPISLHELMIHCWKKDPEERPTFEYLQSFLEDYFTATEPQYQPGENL
Protocol: as §1, §2, §3, §4
as §7, with “Fyn human” for “Lyn (h)”, “250 μM KVEKIGEGTYGVVYK (Cdc2 peptide),” for “0.1% β-mercaptoethanol, 0.1 mg/ml poly(Glu, Tyr) 4:1,”, “P30 filtermat” for “Filtermat A”

Ret human = Ret human (Homo sapiens, UniProt P07949); test: Kinase profiling, glass-fiber filter technology: Ret; settings: test concentration of 10^−6 M; read-out: Ret inhibition score
Ret human, sequence (P07949 29-1114): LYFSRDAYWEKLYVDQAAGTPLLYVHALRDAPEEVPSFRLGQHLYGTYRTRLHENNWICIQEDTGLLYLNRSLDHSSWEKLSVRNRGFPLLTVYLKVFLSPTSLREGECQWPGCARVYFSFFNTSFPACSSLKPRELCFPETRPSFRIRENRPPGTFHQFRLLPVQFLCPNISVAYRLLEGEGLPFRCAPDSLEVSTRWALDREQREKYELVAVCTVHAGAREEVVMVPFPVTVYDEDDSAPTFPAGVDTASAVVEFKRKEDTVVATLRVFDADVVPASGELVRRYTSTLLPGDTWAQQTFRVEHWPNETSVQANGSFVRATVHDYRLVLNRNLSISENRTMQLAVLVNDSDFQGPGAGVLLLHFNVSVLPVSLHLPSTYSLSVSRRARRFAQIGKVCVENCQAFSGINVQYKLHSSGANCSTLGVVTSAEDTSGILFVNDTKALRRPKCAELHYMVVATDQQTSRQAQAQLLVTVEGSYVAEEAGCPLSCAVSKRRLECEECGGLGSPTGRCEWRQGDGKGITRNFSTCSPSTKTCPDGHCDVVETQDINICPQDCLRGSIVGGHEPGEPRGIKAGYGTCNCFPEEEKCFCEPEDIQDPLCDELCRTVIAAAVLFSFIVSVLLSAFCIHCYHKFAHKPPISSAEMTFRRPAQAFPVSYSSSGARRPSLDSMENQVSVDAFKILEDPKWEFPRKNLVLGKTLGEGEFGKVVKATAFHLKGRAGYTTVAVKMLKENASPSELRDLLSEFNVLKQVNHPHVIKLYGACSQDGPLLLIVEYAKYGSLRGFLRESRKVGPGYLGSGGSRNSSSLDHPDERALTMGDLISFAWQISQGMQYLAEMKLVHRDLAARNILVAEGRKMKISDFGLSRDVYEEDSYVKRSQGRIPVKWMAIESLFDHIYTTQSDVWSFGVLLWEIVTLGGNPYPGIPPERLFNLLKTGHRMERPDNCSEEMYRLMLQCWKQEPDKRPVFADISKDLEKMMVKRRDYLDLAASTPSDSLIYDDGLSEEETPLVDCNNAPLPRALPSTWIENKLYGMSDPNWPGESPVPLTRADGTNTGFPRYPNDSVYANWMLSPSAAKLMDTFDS
Protocol: as §1, §2, §3, §4
as §7, with “μl, Ret human” for “μl, Lyn (h)”, “with 8” for “with 50”, “mM MOPS” for “mM Tris”, “pH 7.0, 0.2” for “pH 7.5, 0.1”, “mM EDTA, 250 μM KKKSPGEYVNIEFG,” for “mM EGTA, 0.1 mM Na3VO4, 0.1% β-mercaptoethanol, 0.1 mg/ml poly(Glu, Tyr) 4:1,”, “a P30 filtermat” for “a Filtermat A”

ErbB4 (h) = ErbB4 (h) (Homo sapiens, UniProt Q15303); test: Kinase profiling, glass-fiber filter technology: ErbB4; settings: test concentration of 10^−6 M; read-out: ErbB4 inhibition score
Protocol: as §1, §2, §3, §4
In a final reaction volume of 25 μl, ErbB4 (h) (5-10 mU) is incubated with 8 mM MOPS pH 7.0, 0.2 mM EDTA, 10 mM MnCl2, 0.1 mg/ml poly(Glu, Tyr) 4:1, 10 mM MgAcetate and [γ-33P-ATP] (specific activity approx. 500 cpm/pmol, concentration as required). The reaction is initiated by the addition of the MgATP mix. After incubation for 40 minutes at room temperature, the reaction is stopped by the addition of 5 μl of a 3% phosphoric acid solution. 10 μl of the reaction is then spotted onto a Filtermat A and washed three times for 5 minutes in 75 mM phosphoric acid and once in methanol prior to drying and scintillation counting.

cSRC (h), sequence (P12931 whole entry): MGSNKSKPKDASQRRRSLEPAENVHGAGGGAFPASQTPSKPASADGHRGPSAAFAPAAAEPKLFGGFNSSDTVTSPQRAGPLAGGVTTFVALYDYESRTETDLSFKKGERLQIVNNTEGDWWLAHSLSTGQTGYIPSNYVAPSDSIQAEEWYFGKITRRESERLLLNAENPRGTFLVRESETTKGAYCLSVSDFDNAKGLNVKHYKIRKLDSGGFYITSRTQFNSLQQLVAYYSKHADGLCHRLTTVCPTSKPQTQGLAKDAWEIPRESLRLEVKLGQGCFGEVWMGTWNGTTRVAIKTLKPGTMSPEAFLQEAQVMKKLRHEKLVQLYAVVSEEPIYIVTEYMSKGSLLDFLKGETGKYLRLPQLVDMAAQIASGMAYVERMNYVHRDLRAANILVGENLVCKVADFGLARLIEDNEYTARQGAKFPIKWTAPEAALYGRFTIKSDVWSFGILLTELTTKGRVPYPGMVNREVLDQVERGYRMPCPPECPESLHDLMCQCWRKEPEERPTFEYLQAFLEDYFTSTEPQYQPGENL

inhibition at 1 µM (cSRC (h)) [%]	inhibition at 1 µM (EGFR (h)) [%]	inhibition at 1 µM (Lck (h)) [%]	inhibition at 1 µM (Lyn (h)) [%]	inhibition at 1 µM (Yes (h)) [%]	inhibition at 1 µM (Blk (m)) [%]	inhibition at 1 µM (Abl (h)) [%]	inhibition at 1 µM (Fyn human) [%]	inhibition at 1 µM (Ret human) [%]	inhibition at 1 µM (ErbB4 (h)) [%]	SMILES
60 to 80	> 80	10 to 30	30 to 60	30 to 60	30 to 60	–	–	–	–	COc1cc2ncnc3c2cc1OCCN(CCN1CCOCC1)C(=O)CNC(=O)Cc1ccc(Cl)cc1N3 [Compound 1]
> 80	> 80	> 80	–	> 80	–	10 to 30	60 to 80	> 80	60 to 80	COc1cc2ncnc3c2cc1OCCCNC(=O)[C@H](CC1CCCCC1)NC(=O)CCc1ccc(Cl)cc1N3 [Compound 8]
